Assay [1] concerns the target human activated kallikrein enzyme (Homo sapiens, UniProt P03952). Description: Plasma kallikrein inhibition, fluorogenic PFR-AMC substrate, 500 pM activated kallikrein format. Particulars: 500 pM activated kallikrein, 300 uM PFR-AMC, 30 min preincubation, 10 min reaction; read-out: Primary Dose Response Assay: Average EC50. The class given is biochemical. A digest of the protocol: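 Enzyme at 500 pM preincubated 30 min RT with inhibitors in 20 mM Tris pH 7.5, 1 mM EDTA, 150 mM NaCl, 0.1% PEG-400, 0.1% Triton X-100. Reaction started with 300 uM PFR-AMC, run 10 min RT; fluorescence read at 460 nm emission, 380 nm excitation. EC50 reported in ranges.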

The target of assay [2] is T1, plasma kallikrein (Homo sapiens, UniProt P03952).
T1 construct: from tissue
In words: Neat human plasma assay, FXIIa contact pathway-activated, PFR-AMC substrate. In kind it is biochemical. The following applies: citrated human plasma 78% final, 10 nM human FXIIa, 100 μM PFR-AMC; read-out: Human Plasma Assay: IC90. In short, it runs like this: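 Citrated human plasma (78% final) with compound, contact-activated by 10 nM human FXIIa in pKal buffer pH 7.5, with 100 μM PFR-AMC. Fluorescence (360/480 nm) followed 5 min at room temperature; rates versus concentration fitted by 4-parameter equation for IC50/IC90.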

EC50 and IC90 data for 19 compounds are collected here from US20240228488A1 (TAKEDA PHARMACEUTICAL COMPANY LIMITED, priority 2021, published 2024).

pEC50: −log10 of the molar value. Some results are limits rather than exact numbers.

T1 sequence (P03952 391-638 limits assumed): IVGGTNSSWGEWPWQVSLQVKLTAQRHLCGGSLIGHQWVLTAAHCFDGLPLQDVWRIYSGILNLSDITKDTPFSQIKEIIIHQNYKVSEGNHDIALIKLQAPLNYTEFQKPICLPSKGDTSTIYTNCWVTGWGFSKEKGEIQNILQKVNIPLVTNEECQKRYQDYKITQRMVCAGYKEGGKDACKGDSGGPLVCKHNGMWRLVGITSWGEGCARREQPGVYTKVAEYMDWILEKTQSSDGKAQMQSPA
T1 sequence (P03952 20-390 partner limits assumed): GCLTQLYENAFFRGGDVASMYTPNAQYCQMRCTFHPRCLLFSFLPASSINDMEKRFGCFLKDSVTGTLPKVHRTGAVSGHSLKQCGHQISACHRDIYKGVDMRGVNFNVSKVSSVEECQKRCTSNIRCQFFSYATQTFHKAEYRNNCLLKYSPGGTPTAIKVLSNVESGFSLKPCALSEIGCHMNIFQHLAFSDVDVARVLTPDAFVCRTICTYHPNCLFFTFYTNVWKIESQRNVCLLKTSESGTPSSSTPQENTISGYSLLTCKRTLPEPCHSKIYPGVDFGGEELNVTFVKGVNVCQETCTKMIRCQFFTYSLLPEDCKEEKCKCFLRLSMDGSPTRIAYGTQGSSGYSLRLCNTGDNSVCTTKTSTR
human activated kallikrein enzyme, sequence (P03952 391-638 limits assumed): as the sequence (P03952 391-638 limits assumed) above
human activated kallikrein enzyme, sequence (P03952 20-390 partner limits assumed): as the sequence (P03952 20-390 partner limits assumed) above

As for `Cc1ccnc([C@H]2C[C@@H]2C(=O)Nc2cc(N3C[C@@H](O)C[C@@H]3c3cn4cc(C5CC5)cc(N5CC(=O)NC5=O)c4n3)ncn2)n1` (relative stereo) [Example 474, rac-(1S*,2S*)-N-(6-((2R,4S)-2-(6-cyclopropyl-8-(2,4-dioxoimidazolidin-1-yl)imidazo[1,2-a]pyridin-2-yl)-4-hydroxypyrrolidin-1-yl)pyrimidin-4-yl)-2-(4-methylpyrimidin-2-yl)cyclopropane-1-carboxamide], the pEC50 in assay [1] was over 9.00. For the same compound, the IC90 in assay [2] fell in the range of 400 to 1500 nM.

As to `NCc1cc(C2CC2)cn2cc(CNc3ccnc(NC(=O)[C@H]4C[C@@H]4c4cccc(Cl)c4)c3)nc12` (racemic) [Example 120, rac-(1S*,2S*)—N-(4-(((8-(aminomethyl)-6-cyclopropylimidazo[1,2-a]pyridin-2-yl)methyl)amino)pyridin-2-yl)-2-(3-chlorophenyl)cyclopropane-1-carboxamide], the pEC50 in assay [1] was over 9.00. In assay [2], the IC90 lay in the range of 10000 to 48000 nM.

As to `Cc1ccnc([C@H]2C[C@@H]2C(=O)Nc2ncc(F)c(NCc3cn4cc(C5CC5)cc(N5CC(=O)N(CCO)C5=O)c4n3)n2)n1` (racemic) [Example 540, rac-(1S*,2S*)—N-(4-(((6-cyclopropyl-8-(3-(2-hydroxyethyl)-2,4-dioxoimidazolidin-1-yl)imidazo[1,2-a]pyridin-2-yl)methyl)amino)-5-fluoropyrimidin-2-yl)-2-(4-methylpyrimidin-2-yl)cyclopropane-1-carboxamide], the pEC50 in assay [1] was over 9.00. In addition, the IC90 in assay [2] was under 400 nM.

For `Cc1ccnc([C@H]2C[C@@H]2C(=O)Nc2ncnc(NCc3cn4cc(C5CC5)cc(N5CC(=O)N(C)C5=O)c4n3)n2)n1` (racemic) [Example 623, rac-(1S*,2S*)—N-(4-(((6-cyclopropyl-8-(3-methyl-2,4-dioxoimidazolidin-1-yl)imidazo[1,2-a]pyridin-2-yl)methyl)amino)-1,3,5-triazin-2-yl)-2-(4-methylpyrimidin-2-yl)cyclo propane-1-carboxamide], in assay [1], the pEC50 is over 9.00. The IC90 in assay [2] was under 400 nM.

With `COCC(Nc1cc(NC(=O)[C@H]2C[C@@H]2c2nccc(C)n2)ncn1)c1cn2cc(C3CC3)cc(N3CC(=O)N(C)C3=O)c2n1` (stereo partly drawn) [Example 373, (1S,2S)-N-(6-((1-(6-cyclopropyl-8-(3-methyl-2,4-dioxoimidazolidin-1-yl)imidazo[1,2-a]pyridin-2-yl)-2-methoxyethyl)amino)pyrimidin-4-yl)-2-(4-methylpyrimidin-2-yl)cyclopropane-1-carboxamide], the pEC50 in assay [1] is 8.00 to 9.00. Besides, the IC90 in assay [2] was in the range of 400 to 1500 nM.

As to `O=C(Nc1cncc(NCc2cn3cc(C4CC4)ccc3n2)c1)[C@H]1C[C@@H]1c1cccc(Cl)c1` (racemic) [Example 574, rac-(1S*,2S*)-2-(3-chlorophenyl)-N-(5-(((6-cyclopropylimidazo[1,2-a]pyridin-2-yl)methyl)amino)pyridin-3-yl)cyclopropane-1-carboxamide], in assay [1], the pEC50 was 8.00 to 9.00. Further, the IC90 in assay [2] fell in the range of 10000 to 48000 nM.

As for `O=C(Nc1cc(NCc2cn3cc(C4CC4)ccc3n2)ccn1)[C@H]1C[C@@H]1c1cc(Cl)ccc1-n1cnnn1` (racemic) [Example 287, rac-(1S*,2S*)-2-(5-chloro-2-(1H-tetrazol-1-yl)phenyl)-N-(4-(((6-cyclopropylimidazo[1,2-a]pyridin-2-yl)methyl)amino)pyridin-2-yl)cyclopropane-1-carboxamide], the pEC50 in assay [1] was over 9.00. The IC90 in assay [2] was 10000 to 48000 nM.

Regarding `Cc1ccnc([C@H]2C[C@@H]2C(=O)Nc2cc(OCc3cn4cc(C5CC5)cc(N5CC(=O)N(C)C5=O)c4n3)c(C)nn2)n1` [Example 560, (1S,2S)-N-(5-((6-cyclopropyl-8-(3-methyl-2,4-dioxoimidazolidin-1-yl)imidazo[1,2-a]pyridin-2-yl)methoxy)-6-methylpyridazin-3-yl)-2-(4-methylpyrimidin-2-yl)cyclopropane-1-carboxamide], the pEC50 in assay [1] is over 9.00. Besides, the IC90 in assay [2] was under 400 nM.

On to `CN1C(=O)CN(c2cc(C3CC3)cn3cc(CNc4cc(NC(=O)[C@@H]5[C@@H](c6cccc(Cl)c6)C5(F)F)ncn4)nc23)C1=O` (racemic) [Example 543, rac-(1S*,3S*)-3-(3-chlorophenyl)-N-(6-(((6-cyclopropyl-8-(3-methyl-2,4-dioxoimidazolidin-1-yl)imidazo[1,2-a]pyridin-2-yl)methyl)amino)pyrimidin-4-yl)-2,2-difluorocyclopropane-1-carboxamide], for which the pEC50 in assay [1] was 8.00 to 9.00. For the same compound, the IC90 in assay [2] is 1500 to 10000 nM.

With `CN1CCN(c2cc(C3CC3)cn3cc(CNc4cc(NC(=O)[C@H]5C[C@@H]5c5cccc(Cl)c5)nc(O)n4)nc23)CC1` [Example 285, (1S,2S)-2-(3-chlorophenyl)-N-(6-(((6-cyclopropyl-8-(4-methylpiperazin-1-yl)imidazo[1,2-a]pyridin-2-yl)methyl)amino)-2-hydroxypyrimidin-4-yl)cyclopropane-1-carboxamide], in assay [1], the pEC50 was over 9.00. Moreover, the IC90 in assay [2] is under 400 nM.

Take `Cc1ccnc([C@H]2C[C@@H]2C(=O)Nc2cc(OCc3cn4cc(C5CC5)cc(N5CC(=O)NC5=O)c4n3)ncn2)n1` [Example 32, (1S,2S)—N-(6-((6-cyclopropyl-8-(2,4-dioxoimidazolidin-1-yl)imidazo[1,2-a]pyridin-2-yl)methoxy)pyrimidin-4-yl)-2-(4-methylpyrimidin-2-yl)cyclopropane-1-carboxamide]: in assay [1], the pEC50 was over 9.00. Besides, in assay [2], the concentration for an effect of 90% (IC90) is under 400 nM.

Consider `Cc1ccnc([C@H]2C[C@@H]2C(=O)Nc2nc(Cl)nc(NCc3cn4cc(C5CC5)cc(N5CC(=O)N(C)C5=O)c4n3)n2)n1` (racemic) [Example 622, rac-(1S*,2S*)—N-(4-chloro-6-(((6-cyclopropyl-8-(3-methyl-2,4-dioxoimidazolidin-1-yl)imidazo[1,2-a]pyridin-2-yl)methyl)amino)-1,3,5-triazin-2-yl)-2-(4-methylpyrimidin-2-yl)cyclopropane-1-carboxamide], for which the pEC50 in assay [1] is over 9.00. The IC90 in assay [2] lay within 400 to 1500 nM.

Turning to `COCCOCCN1C(=O)CN(c2cc(C3CC3)cn3cc(CNc4cc(NC(=O)[C@H]5C[C@@H]5c5nccc(C)n5)ncn4)nc23)C1=O` [Example 382, (1S,2S)-N-(6-(((6-cyclopropyl-8-(3-(2-(2-methoxyethoxy)ethyl)-2,4-dioxoimidazolidin-1-yl)imidazo[1,2-a]pyridin-2-yl)methyl)amino)pyrimidin-4-yl)-2-(4-methylpyrimidin-2-yl)cyclopropane-1-carboxamide], the pEC50 in assay [1] is over 9.00. In addition, the IC90 in assay [2] was under 400 nM.

In the case of `Cc1ccnc([C@H]2C[C@@H]2C(=O)Nc2cc(N[C@H](C)c3cn4cc(C5CC5)cc(N5CCCC5=O)c4n3)ncn2)n1` [Example 418, (1S,2S)-N-(6-(((R)-1-(6-cyclopropyl-8-(2-oxopyrrolidin-1-yl)imidazo[1,2-a]pyridin-2-yl)ethyl)amino)pyrimidin-4-yl)-2-(4-methylpyrimidin-2-yl)cyclopropane-1-carboxamide], in assay [1], the negative-log EC50 (pEC50) was over 9.00. In assay [2], the IC90 was under 400 nM.

Consider `Cc1ccnc([C@H]2C[C@@H]2C(=O)Nc2nc(C)nc(NCc3cn4cc(C5CC5)cc(N5CC(=O)N(C)C5=O)c4n3)n2)n1` (racemic) [Example 525, rac-(1S*,2S*)-N-(4-(((6-cyclopropyl-8-(3-methyl-2,4-dioxoimidazolidin-1-yl)imidazo[1,2-a]pyridin-2-yl)methyl)amino)-6-methyl-1,3,5-triazin-2-yl)-2-(4-methylpyrimidin-2-yl)cyclopropane-1-carboxamide], for which the pEC50 in assay [1] was over 9.00. Moreover, the IC90 in assay [2] is under 400 nM.

Take `CN1C(=O)CN(c2cc(C3CC3)cn3cc(CNc4cc(NC(=O)[C@H]5C[C@@H]5c5nc(Cl)ccc5C#N)ncn4)nc23)C1=O` (racemic) [Example I-167, rac-(1S*,2S*)-2-(6-chloro-3-cyanopyridin-2-yl)-N-(6-(((6-cyclopropyl-8-(3-methyl-2,4-dioxoimidazolidin-1-yl)imidazo[1,2-a]pyridin-2-yl)methyl)amino)pyrimidin-4-yl)cyclopropane-1-carboxamide]: the pEC50 in assay [1] is over 9.00. Also, the IC90 in assay [2] is 400 to 1500 nM.

Consider `O=C(Nc1cc(N(CCO)Cc2cn3cc(C4CC4)ccc3n2)ccn1)[C@H]1C[C@@H]1c1cccc(Cl)c1` [Example 604, (1S,2S)-2-(3-chlorophenyl)-N-(4-(((6-cyclopropylimidazo[1,2-a]pyridin-2-yl)methyl)(2-hydroxyethyl)amino)pyridin-2-yl)cyclopropane-1-carboxamide], for which the pEC50 in assay [1] is 8.00 to 9.00. In assay [2], the IC90 was 10000 to 48000 nM.

As to `O=C(Nc1cc(NCc2cn3cc(C4CC4)cc(CCO)c3n2)ccn1)[C@H]1C[C@@H]1c1cccc(Cl)c1` [Example 292, (1S,2S)-2-(3-chlorophenyl)-N-(4-(((6-cyclopropyl-8-(2-hydroxyethyl)imidazo[1,2-a]pyridin-2-yl)methyl)amino)pyridin-2-yl)cyclopropane-1-carboxamide], the pEC50 in assay [1] was over 9.00. The IC90 in assay [2] was in the range of 1500 to 10000 nM.

Consider `O=C(Nc1cc(NCc2cn3cc(C4CC4)cc(COCCO)c3n2)ccn1)[C@H]1C[C@@H]1c1cccc(Cl)c1` [Example 288, (1S,2S)-2-(3-chlorophenyl)-N-(4-(((6-cyclopropyl-8-((2-hydroxyethoxy)methyl)imidazo[1,2-a]pyridin-2-yl)methyl)amino)pyridin-2-yl)cyclopropane-1-carboxamide], for which, in assay [1], the pEC50 was over 9.00. In addition, the IC90 in assay [2] was 1500 to 10000 nM.
